Measured values from patent US20200199527A1, “METHODS OF MATURATION OF HUMAN SPERMATOGONIUM” (B.G. Negev Technologies & Applications Ltd., at Ben-Gurion …, priority 2017, published 2020).

Tests used:
[1] = tested on: cells isolated from seminiferous tubules of ICR immature (7-day-old) mice; test: Effect of hormones and retinoic acid on development of mouse spermatogenesis in vitro in methylcellulose culture system (qPCR of markers); format: cell-based; conditions: 10^−8 M, 10^−7 M or 10^−6 M added after two weeks of culture, examined after total four weeks, normal immature mice
Description: Cells were enzymatically isolated from seminiferous tubules of ICR mice (which were developed by the Institute of Cancer Research, also called CD-1) immature mice (7-day-old mice).
Briefly, cells were cultured (2×10^5 cells/well/500 μl) in MEM medium which contained sodium bicarbonate 7.5%, L-glutamine 200 mM, non-essential amino acids 1%, penicillin/streptomycin and gentamicin 10 mg/ml, and were incubated over 2 nights in 24 wells plate at 37° C., 5% CO2. The nonadherent cells were collected and cultured ([…] cells/well/500 μl) in methylcellulose (42%; R&D, Minneapolis, USA) [as a three-dimension (3D) culture system], which contained the StemPro-34 medium (Gibco, USA) enriched with: 10% KSR (knockout serum replacement, Gibco, USA) and the following growth factors: Glial cell-derived neurotrophic factor (GDNF; 10 ng/ml; Biolegend), Leukemia inhibitory factor (LIF; 10 ng/ml; Biolegend), epidermal growth factors (EGF; 20 ng/ml; Biolegend, CA, USA), bFGF (basic fibroblast growth factor) (10 ng/ml; Biolegend).
Cells were cultured for 4 weeks. Every 1-2 weeks (according to the growth and morphology of the cells) the present inventor added 50 μl/well of fresh concentrated (×10) enriched StemPro-34 medium to the cell cultures. […]

[2] = tested on: Isolated testicular cells (from azoospermic adult patients); test: Effect of TNFα on development of spermatogenic markers in vitro in methylcellulose culture system (MCS); format: cell-based, human; set-up: key to VASA (pre-meiotic marker) staining / PLZF (pre-meiotic marker) staining / SALL4 (pre-meiotic marker) staining / CREM (meiotic marker) staining / BOULE (meiotic marker) staining / ACROSIN (post-meiotic marker) staining: “+” indicates positive staining for the indicated marker; “−” indicates negative staining for the indicated marker
Description: After an overnight in sperm wash media containing 30% human serum albumin at room temperature (RT), TESE specimen were re-searched for sperm and then collected into the same media and transferred to the present inventor' lab, while TEFNA specimens were transferred to Modified Human Tubal Fluid (HTF) media containing 15% serum protein substitutes and transferred to the present inventor' lab after two days at RT. For cell isolation, biopsies were cut into small pieces of ˜2 mm, and subjected to collagenase type V (2 mg/ml) (Sigma, St. Louis, Mo., USA), DNAse (8 μg/ml) (Sigma) and hyelorunidase (2 mg/ml) (Sigma) in a total volume of 4 ml for 20 minutes in a 32° C. water bath shaker. Cells were precipitated by centrifugation (300×g, 10 minutes) and suspended with 4 ml of Tryple Select (Gibco, Denmark) for 10 minutes in a shaking water bath at 32° C. Cell suspension was centrifuged (300×g, 10 minutes) and the precipitated cells were suspended in 200 μl Roswell Park Memorial Institute (RPMI) (Biological Industries, Beit Haemek, Israel) and counted. Cells were cultured (2×10^4 cells/well/500 μl) in Minimum Essential Medi (MEM) (Biological Industries) which contained sodium bicarbonate (Gibco, UK), 7.5%, L-glutamine (Biological industries) 200 mM, non-essential amino acids (Gibco, UK) 1%, penicillin/streptomycin (Biological Industries) and gentamicin (Biological Industries) (10 mg/ml), and incubated for 2 nights in 24 well plates at 37° C., 5% CO2. The nonadherent cells were collected and cultured (2×10^4 cells/well/500 μl) in methylcellulose (R&D, Minneapolis, USA) (42%) [as a three-dimension (3D) culture system], which contained 33% StemPro-34 medium (Gibco, USA) enriched with: StemPro supplement (2.6%) (Gibco), insulin (25 μg/ml) (Gibco), transferrin (100 μg/ml) (Gibco), putrescin (60 μg/ml) (Gibco), sodium selenite (30 nM) (Gibco), D-glucose (6 mg/ml) (Sigma), pyruvic acid (30 μg/ml) (Sigma), BSA (Millpore, Illkirch, France) (5 mg/ml), L-glutamine (2 mM) (Biological Industries), 2-mercaptoethanol (0.5 μM) (Gibco), MEM vitamin solution (10 μl/ml) (Gibco, UK), MEM non-essential amino acid solution (10 μl/ml) (Gibco, UK), ascorbic acid (100 μM) (Sigma, China), d-biotin (10 μg/ml) (Sigma), 1% KSR (Gibco, UK), 0.5% Pen/Strep (Biological Industries), human rEGF (20 ng/ml) (Biolegend, CA, USA), human rGDNF (10 ng/ml) (Biolegend), human rLIF (10 ng/ml) (Biolegend) and human r-bFGF (10 ng/ml) (Biolegend). Cells were cultured for 1-16 weeks. Every 1-2 weeks (according to the growth and morphology of the cells), we added 50 μl/well of fresh concentrated (×10) enriched StemPro-34 medium to the cell cultures.
Isolated cells were fixed in cold methanol for 20 minutes. The immunostaining process was similar to that mentioned above for testicular tissue immunostaining after the stage of antigen retrieval. Following the removal of the blocking buffer, the first antibodies were added: Polyclonal rabbit anti-mouse SALL4 (Abcam, Cambridge, UK; 1:400), Polyclonal rabbit anti-human VASA (Santa Cruz 1:100), Polyclonal rabbit anti-human CD9 (Santa Cruz; 1:10), Polyclonal goat anti-human OCT4 (Santa Cruz; 1:50), Polyclonal rabbit anti-human α-6-INTEGRIN (Santa Cruz; 1:100), Polyclonal rabbit anti-human GFR-α □(Santa Cruz; 1:50), monoclonal mouse anti-human PLZF (Santa Cruz; 1:100), Polyclonal rabbit anti-human c-KIT (Santa Cruz; 1:50), Polyclonal rabbit anti-human BOULE (Santa Cruz; 1:25), Polyclonal rabbit anti-mouse CREM-1 (Santa Cruz; 1:30), Polyclonal goat anti-human LDH (Santa Cruz; 1:50), Polyclonal goat anti-mouse PROTAMINE (Santa Cruz; 1:20), Polyclonal rabbit anti-human ACROSIN (Santa Cruz; 1:10), monoclonal mouse anti-human Ki67 (Dianova GmbH, Germany; 1:200), monoclonal rabbit anti-human Ki67 (Cell marque; 1:200). After overnight incubation at 4° C., the slides were washed and treated as mentioned above for testicular tissue immunostaining. […]

[3] = TNFα 20 pg/ml, after culture (14.5 Ws) in MCS, patient 1, immunofluorescence staining

Row | Compound | expression of the meiotic/post-meiotic marker ACROSIN [1] | differentiation of the pre-meiotic cells to meiotic cells that express CREM ([2]; TNFα 20 pg/ml, patient #1, compared to CT (did not induce CREM)) | growth of premeiotic cells VASA and PLZF, meiotic cells (Boule) and postmeiotic cells (acrosin positive cells) ([2]; TNFα 20 pg/ml, patient #1, versus control (CT)) | ACROSIN (post-meiotic marker) staining [2, 3] | BOULE (meiotic marker) staining [2, 3] | CREM (meiotic marker) staining [2, 3] | PLZF (pre-meiotic marker) staining [2, 3] | SALL4 (pre-meiotic marker) staining [2, 3] | VASA (pre-meiotic marker) staining [2, 3] | development of colonies in MCS ([2]; in the presence of TNFα)
1 | C[C@]12CC[C@H]3[C@@H](CCC4=CC(=O)CC[C@@]43C)[C@@H]1CC[C@@H]2O [testosterone] | increased |  |  |  |  |  |  |  |  | 
2 | TNFα |  | induced the differentiation | maintained/induced growth | + | + | + | + | − | + | colonies were developed
